Entries after “also recorded” stand apart in the source; their conditions may differ.
Columns and labels:
3T3-L1 cells = assay: Adipocyte differentiation, Oil Red O staining; assay type: cell-based, mouse; conditions: preadipocytes 7 days in differentiating media (DM) + compound
Protocol: Two-day post-confluent 3T3-L1 preadipocyte cells were allowed to differentiate for 7 days in the presence of nothing, DM only, DM+ a test compound (COH-SR1, COH-SR2, COH-SR3, COH-SR4, COH-SR7, LR23 or LR59), or DM+ a positive control (TSA, C75, or Apicidin).
3T3-L1 preadipocytes cells were treated with differentiating media (DM) with COH-SR4 (1 μM, 3 μM, or 5 μM) or without for 7 days. […] As used in FIG. 9C, U=undifferentiated, D=differentiated with cocktail media.

lung cancer cell lines = assay: TUNEL apoptosis assay, lung cancer cell lines; assay type: cell-based, human; conditions: 1.5 μM, 24 h
Protocol: […] Apoptosis was determined by the labeling of DNA fragments with terminal deoxynucleotidyl-transferase dUTP nick-end labeling (TUNEL) assay using Promega fluorescence apoptosis detection system, and examined using Zeiss LSM 510 META laser scanning fluorescence microscope with filters 520 and 620 nm according to the protocol described previously (91). Photographs taken at identical exposure at ×400 magnification are presented.
The effect of COH-SR4 was first examined in a NCI panel of cancer cell lines, the results of which indicated good activity of COH-SR4 towards lung cancer (FIG. 78A). […] Values are presented as mean±SD from two separate determinations with eight replicates each (n=16) (FIG. 78B). The COH-SR4 treatment exerted a significant inhibitory effect on the survival of lung cancer cells [IC50: H1417 cells-1.2±0.2 μM, H1618 cells-1.5±0.2 μM, H358 cells-2.1±0.2 μM and H520 cells-2.4±0.3 μM]. […] Following initial screening for the anticancer activity of COH-SR4, the effect of COH-SR4 on clonogenic potential was studied. Standard colony-forming assay was performed and the colonies were counted using Innotech Alpha Imager HP. […] The effect of COH-SR4 on induction of apoptosis was further investigated. […] TUNEL assay was performed using Promega fluorescence detection kit and examined using Zeiss LSM 510 META laser-scanning fluorescence microscope with filters 520 and 620 nm. […]

H-358 and H-520 cells = assay: Cell cycle FACS analysis, lung cancer; assay type: cell-based, human
Protocol: 2×10^5 cells were treated with COH-SR4 (0 μM, 5 μM or 10 μM) for 18 h at 37° C. After treatment, floating and adherent cells were collected, washed with PBS, and fixed with 70% ethanol. On the day of flow analysis, cell suspensions were centrifuged; counted and same numbers of cells were resuspended in 500 μL PBS in flow cytometry tubes. Cells were then incubated with 2.5 μL of RNase (stock 20 mg/mL) at 37° C. for 30 min after which they were treated with 10 μL of propidium iodide (stock 1 mg/mL) solution and then incubated at room temperature for 30 min in the dark. The stained cells were analyzed using the Beckman Coulter Cytomics FC500, Flow Cytometry Analyzer. Results were processed using CXP2.2 analysis software from Beckman Coulter.
In the context of the elevation of GSTs in lung cancer, the impact of COH-SR4 on the catalytic activity of GSTs towards 1-chloro 2,4-dinitro benzene (CDNB), a model substrate used for GST activity was analyzed. GST activity towards 1-chloro 2,4-dinitro benzene (CDNB) and its inhibition by COH-SR4 was performed in 28000×g crude supernatant prepared from H1417, H1618, H520 and H358 cells. The inhibitory effect of COH-SR4 on GST was studied at a fixed concentration of GSH and CDNB (1 mM each) and varying concentrations of inhibitor. The enzymes were pre-incubated with the inhibitor for 5 min at 37° C. prior to the addition of the substrates. […]

`O=C(Nc1cc(Cl)cc(Cl)c1)Nc1cc(Cl)cc(Cl)c1` [COH-SR4, 1,3-bis(3,5-dichlorophenyl) urea] was tested, and the “differentiation and accumulation of lipid droplets (Oil Red O staining)” value (3T3-L1 cells) was “dose-dependently inhibited differentiation and accumulation of lipid droplets; also recorded: prevented accumulation of fat droplets”, the “apoptosis (TUNEL)” value (lung cancer cell lines) was “induced apoptosis in all the lung cancer cell lines” and the cell cycle arrest (H-358 and H-520 cells) was “induced G0/G1 phase arrest in a concentration dependent manner”.
